Data reported in the NIST ThermoML archive (doi:10.1021/acs.jced.6b00888).

Test: wn = mass fraction of the nth substance listed
Conditions: 101.3 kPa, Liquid, Vibrating tube method

CN(C)CCO [2-(N,N-dimethylamino)ethanol] + O
mass density [kg/m3]
Conditions	w1 = 0.1	w1 = 0.2	w1 = 0.3	w1 = 0.49	w1 = 0.64	w1 = 0.69	w1 = 0.79	w1 = 0.9	w1 = 1
293.15 K	994.8	992.8	990.8	981.7	963	955.3	935.1	911.3	882.2
298.15 K	993.3	990.8	988.1	978	959	951.3	931.1	906.9	884
303.15 K	991.6	988.6	985.2	974.2	954.9	947.2	926.9	902.2	879.8
308.15 K	989.7	986.2	982.2	970.4	950.8	943	922.7	897.9	875.5
313.15 K	987.6	983.6	979.1	966.5	946.6	938.8	918.5	893.5	871.2
318.15 K	985.3	980.9	975.8	962.6	942.4	934.5	914.2	889.1	866.8
323.15 K	982.9	978.4	972.5	958.6	938	930.1	909.8	884	862.4
328.15 K	980.3	975.1	969.1	954.5	933.7	925.7	905.4	879.3	858
333.15 K	977.6	972	965.5	950.3	929.2	921.2	900.9	874.8	853.5
338.15 K	974.7	968.8	961.9	946.1	924.7	916.7	896.4	870.4	849
343.15 K	971.7	965.5	958.2	941.8	920.2	912.1	891.8	865.8	844.4
